Reference: US7687508B2, “Cyclic derivatives as modulators of chemokine receptor activity” (Bristol-Myers Squibb Company, priority 2006, dated 2010)

Columns and labels:
[1] = target: T1, hERG (Homo sapiens, UniProt Q12809); test: hERG flux (Tl+ flux, FLIPR) in HEK293 cells; assay type: cell-based; conditions: HEK293 cells stably expressing hERG
T1 construct: expressed in transfected cells
Protocol: HEK293 cells stably-expressing hERG channels were grown (37° C., 5% CO2) in Dulbecco's Modified Eagle's Media supplemented with 10% Sigma fetal bovine serum, non-essential amino acids, 2 mM L-glutamine and 500 μg/ml G418, at incubator.
A 2 mM stock of BTC-AM dye (Molecular Probes, Eugene, Oreg.) was prepared in 100% DMSO and then added 1:1 to 10% (w/v) pluronic acid in DMSO on the day of assay. The dye was then diluted in hERG external EP buffer (140 mM NaCl, 4.0 mM KCl, 1.8 mM CaCl2, 1.0 mM MgCl2, 10 mM HEPES, pH 7.3 and 10 mM glucose; all buffer components obtained from Sigma Chemical). […] Cells are incubated at 21° C. for 45 minutes.
These compounds were then serially-diluted at a 1:2 ratio in DMSO in columns 1-10 and 11-20 of a 384-well plate. Assay-ready plates were generated by stamping 2.5 μl from the DMSO serially diluted plate, which was prepared on the Velocity 11 BioCel. Aqueous plates were created by adding 48 μl of EP buffer and then were diluted 30-45 minutes before the assay was read on the FLIPR. […] Final DMSO concentration in the assay is 1%. Assay-ready aqueous plates were prepared and diluted on a Cybio liquid handler.
Data collection proceeded every second for 48 seconds, and then continued every three seconds for an additional 2 minutes.
The dynamic range of the assay was determined from blanks and totals wells. The totals wells (columns 21 and 22) define maximal hERG activation for the plate (no test compound present), and the blanks wells (columns 23 and 24) define 100% hERG inhibition. […] Raw data points in each sample well were first corrected for cell/signal variation, negative control (blanks) background, and normalized to the positive controls (totals) using the online FLIPR software. Test compound concentration response curves for the hERG Tl^+ flux data were then fit using Excel Fit (ID Business Solutions Limited, Surrey, UK) with a single-site logistic equation, Y=A+((B−A)/1+((C/X)^D))) where A=maximal inhibition. Data were analyzed by fitting maximum amplitudes of change in fluorescence for Tl^+ flux for a given condition of test compound.

[2] = Parallel Artificial Membrane Permeability Assay (PAMPA); assay type: in vitro ADME; conditions: apical and basolateral pH 7.4
Protocol: All experiments are conducted in triplicate determinations.

[3] = target: T1, hERG; test: hERG patch clamp (whole-cell, HEK-293); assay type: cell-based; conditions: for inhibition at 10000 nM: pH 7.4, 10,000 nM; for inhibition at 30000 nM: pH 7.4, 30,000 nM
[4] = target: human cardiac sodium channel, SCN5A (Nav1.5) (Homo sapiens, UniProt Q14524); test: Sodium channel patch clamp (whole-cell, HEK-293); assay type: cell-based; conditions: HEK-293 cells expressing human cardiac sodium channel SCN5A, 30,000 nM, read-out: Na+ channel patch clamp (% inhibition)
Protocol: The compound was tested at a protein-free aqueous buffer. For determining steady state inhibition, sodium currents were elicited every 5 seconds using the following voltage protocol: cells were held at a potential of −90 mV and stepped to −20 mV for 60 ms. Effects were calculated by measuring inhibition of peak current during the test pulse to −20 mV. Rate-dependence of inhibition was assessed by stimulation at frequencies of 1 Hz and 4 Hz.

[5] = target: T2, human CCR2 (Homo sapiens, UniProt P41597); test: Human peripheral blood mononuclear cell binding (CCR2 binding), 125I-human MCP-1 tracer; parameters: hPBMCs were isolated from human leukopak (Biological Specialty Inc.); endogenous in cells; host or cells: human peripheral blood mononuclear cells from leukopak (Biological Specialty Inc.); conditions: hPBMCs, 125I-MCP-1; figure in parentheses in the cell not copied (count of determinations); read-out: CCR2 Binding IC50
T2 sequence (P41597 1-360 isoform P41597-2): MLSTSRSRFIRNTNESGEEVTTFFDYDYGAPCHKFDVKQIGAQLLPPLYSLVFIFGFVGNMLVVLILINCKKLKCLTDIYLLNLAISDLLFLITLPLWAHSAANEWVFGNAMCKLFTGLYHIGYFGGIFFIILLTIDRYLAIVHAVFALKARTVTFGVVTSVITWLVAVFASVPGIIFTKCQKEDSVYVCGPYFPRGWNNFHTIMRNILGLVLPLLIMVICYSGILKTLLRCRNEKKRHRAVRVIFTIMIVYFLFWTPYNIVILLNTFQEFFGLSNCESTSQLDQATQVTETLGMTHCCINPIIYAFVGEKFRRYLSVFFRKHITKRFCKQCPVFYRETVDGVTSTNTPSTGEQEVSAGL
Protocol: See also: Yoshimura et al., J. Immunol. 1990, 145, 292. The human CCR2 binding assay was established with human peripheral blood mononuclear cells (hPBMCs) using ^125I-human MCP-1 as the tracer ligand. hPBMCs were isolated from human leukopak (Biological Specialty Inc.) using a standard protocol with Ficoll-Hypaque (Mediatech Cellgro). Isolated hPBMCs were washed and diluted to 1×10^7/ml in binding buffer (RPMI-1640, 0.1% BSA, 20 mM Hepes, pH 7.4). ^125I-MCP-1 (NEN/Perk Elmer) was diluted to 0.45 nM in binding buffer. The compound was diluted in binding buffer at 3-fold the final concentrations used in the binding assay. The binding assay was performed using a 96-well filter plate (Millipore). Total ^125I-MCP-1 binding was assessed as follows: to each reaction of a total volume of 150 μl were added 5×10^5 cells, 0.15 nM […], and compound such that the final concentration ranged from 0 to 100 nM. The plate was incubated at room temperature for 30 minutes followed by three washes with RPMI-1640, 0.1% BSA, 0.4 M NaCl, 20 mM Hepes, pH 7.4 using a vacuum manifold filtration (Millipore). After washing, the plate was air-dried for 60 minutes at room temperature. This was followed by adding 25 μl of Microscint 20 into each well. The plate was sealed and counted on the Trilux for 1 minute. Non-specific binding was determined in the presence of 300 nM cold MCP-1 (PeproTech Inc.). Specific 1-MCP-1 was calculated as the difference between total and non-specific binding. All conditions were tested in duplicate.

[6] = target: T2, human CCR2; test: CCR2 chemotaxis (MCP-1-induced, THP-1 cells); assay type: cell-based; parameters: hPBMCs were isolated from human leukopak (Biological Specialty Inc.); endogenous in cells; host or cells: human peripheral blood mononuclear cells from leukopak (Biological Specialty Inc.)
Protocol: The human CCR2 chemotaxis assay was conducted with the human monocytic cell line, THP-1. THP-1 cells were first labeled with the fluorescent dye Calcein-AM in phenol red-free, BSA-free RPMI-1640 (pH 7.4) at 37° C. for 30 minutes with gentle mixing every 15 minutes. The labeled cells were then washed and re-suspended at 1×10^5/ml in chemotaxis buffer (phenol red-free RPMI-1640, 0.1% BSA, pH 7.4). The test compound was diluted in chemotaxis buffer such that the final assay concentration ranged from 0.01 nM to 1 μM. […] To perform the assay, an equal volume of test compound dilutions was mixed with an equal volume of labeled THP-1 cells (Mixture 1), and an equal volume of test compound dilutions was mixed with an equal volume of diluted MCP-1 ligand (Mixture 2). Both mixtures were incubated independently at 37° C. for 10 minutes followed by gentle mixing. MCP-1-induced chemotaxis was then measured in a chemotaxis plate (Becton Dickinson) by placing 50 μl of Mixture 1 in the top chamber and 225 μl of Mixture 2 in the bottom chamber. The plate was covered with a lid and incubated at 37° C. for 30 minutes. 30 minutes later, the plate was read on a Cytofluor. All conditions were tested in duplicate. […] The inhibition achieved by graded concentrations of test compound was calculated as a percentage of the compound-free MCP-1 control.

[7] = Single-dose pharmacokinetics in monkeys; assay type: in vivo; conditions: male, cynomolgus monkey, plasma, dose per compound (mg/kg); for clearance: IV; for AUC: PO; for bioavailability: oral bioavailability
From the text: (1500-2000×g) to obtain plasma.

[8] = Single-dose pharmacokinetics in rats; assay type: in vivo; conditions: male, Sprague-Dawley, plasma, rat, dose per compound (mg/kg); for AUC: PO; for clearance: IV; for bioavailability: oral bioavailability
Protocol: (1500-2000×g) to obtain plasma. […] Plasma samples, obtained by centrifugation at 4° C.

human cardiac sodium channel, SCN5A (Nav1.5), sequence (Q14524 whole entry): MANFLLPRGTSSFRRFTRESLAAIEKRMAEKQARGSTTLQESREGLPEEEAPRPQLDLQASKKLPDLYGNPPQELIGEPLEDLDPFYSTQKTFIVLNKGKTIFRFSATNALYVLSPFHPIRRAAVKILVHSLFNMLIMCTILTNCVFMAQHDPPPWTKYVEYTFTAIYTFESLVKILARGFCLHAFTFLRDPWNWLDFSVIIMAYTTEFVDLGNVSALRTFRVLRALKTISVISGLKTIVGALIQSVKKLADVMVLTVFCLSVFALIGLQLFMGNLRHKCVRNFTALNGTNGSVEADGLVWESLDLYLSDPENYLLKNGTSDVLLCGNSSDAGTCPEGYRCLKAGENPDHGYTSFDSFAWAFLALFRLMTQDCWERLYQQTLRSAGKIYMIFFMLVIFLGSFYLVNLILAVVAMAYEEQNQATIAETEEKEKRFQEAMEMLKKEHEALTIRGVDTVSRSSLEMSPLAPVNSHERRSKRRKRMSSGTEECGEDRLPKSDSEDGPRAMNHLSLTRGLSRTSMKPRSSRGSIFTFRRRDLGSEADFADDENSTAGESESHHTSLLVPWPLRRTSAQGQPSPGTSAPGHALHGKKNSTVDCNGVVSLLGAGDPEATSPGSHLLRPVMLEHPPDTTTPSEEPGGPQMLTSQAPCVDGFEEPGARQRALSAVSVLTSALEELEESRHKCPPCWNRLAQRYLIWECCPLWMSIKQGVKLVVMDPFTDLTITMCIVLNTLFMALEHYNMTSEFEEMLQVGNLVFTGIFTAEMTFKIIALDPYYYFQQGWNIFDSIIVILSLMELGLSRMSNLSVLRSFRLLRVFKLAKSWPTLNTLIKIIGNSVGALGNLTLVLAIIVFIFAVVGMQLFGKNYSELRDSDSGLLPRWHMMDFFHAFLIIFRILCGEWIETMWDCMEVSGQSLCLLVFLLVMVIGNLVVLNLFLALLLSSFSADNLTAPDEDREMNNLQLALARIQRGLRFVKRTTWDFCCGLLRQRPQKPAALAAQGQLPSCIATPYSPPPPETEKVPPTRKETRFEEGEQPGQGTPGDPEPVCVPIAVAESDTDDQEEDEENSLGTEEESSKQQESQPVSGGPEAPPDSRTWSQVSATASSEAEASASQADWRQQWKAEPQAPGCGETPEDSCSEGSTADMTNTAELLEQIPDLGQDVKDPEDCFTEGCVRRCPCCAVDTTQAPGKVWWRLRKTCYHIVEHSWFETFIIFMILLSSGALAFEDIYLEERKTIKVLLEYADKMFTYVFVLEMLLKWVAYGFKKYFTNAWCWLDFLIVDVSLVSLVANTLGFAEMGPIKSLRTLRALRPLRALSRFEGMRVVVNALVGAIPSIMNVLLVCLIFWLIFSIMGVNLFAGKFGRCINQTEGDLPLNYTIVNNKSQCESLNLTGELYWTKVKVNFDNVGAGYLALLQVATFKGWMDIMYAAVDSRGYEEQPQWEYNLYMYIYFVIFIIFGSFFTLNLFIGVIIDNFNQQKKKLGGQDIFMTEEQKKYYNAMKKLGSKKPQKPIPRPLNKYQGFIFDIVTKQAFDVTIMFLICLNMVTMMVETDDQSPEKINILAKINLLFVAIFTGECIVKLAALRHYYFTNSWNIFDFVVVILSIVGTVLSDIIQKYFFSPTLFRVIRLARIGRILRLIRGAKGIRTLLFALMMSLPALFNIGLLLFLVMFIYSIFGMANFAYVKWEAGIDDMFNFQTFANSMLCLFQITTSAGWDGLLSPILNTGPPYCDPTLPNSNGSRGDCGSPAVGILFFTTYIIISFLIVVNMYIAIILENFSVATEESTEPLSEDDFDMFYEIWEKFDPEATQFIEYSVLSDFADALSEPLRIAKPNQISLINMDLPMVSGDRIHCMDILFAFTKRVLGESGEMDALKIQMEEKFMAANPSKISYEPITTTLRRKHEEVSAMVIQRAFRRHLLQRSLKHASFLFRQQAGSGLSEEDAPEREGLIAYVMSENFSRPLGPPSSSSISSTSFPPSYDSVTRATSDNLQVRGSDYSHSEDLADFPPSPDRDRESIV
T1 sequence (Q12809 whole entry): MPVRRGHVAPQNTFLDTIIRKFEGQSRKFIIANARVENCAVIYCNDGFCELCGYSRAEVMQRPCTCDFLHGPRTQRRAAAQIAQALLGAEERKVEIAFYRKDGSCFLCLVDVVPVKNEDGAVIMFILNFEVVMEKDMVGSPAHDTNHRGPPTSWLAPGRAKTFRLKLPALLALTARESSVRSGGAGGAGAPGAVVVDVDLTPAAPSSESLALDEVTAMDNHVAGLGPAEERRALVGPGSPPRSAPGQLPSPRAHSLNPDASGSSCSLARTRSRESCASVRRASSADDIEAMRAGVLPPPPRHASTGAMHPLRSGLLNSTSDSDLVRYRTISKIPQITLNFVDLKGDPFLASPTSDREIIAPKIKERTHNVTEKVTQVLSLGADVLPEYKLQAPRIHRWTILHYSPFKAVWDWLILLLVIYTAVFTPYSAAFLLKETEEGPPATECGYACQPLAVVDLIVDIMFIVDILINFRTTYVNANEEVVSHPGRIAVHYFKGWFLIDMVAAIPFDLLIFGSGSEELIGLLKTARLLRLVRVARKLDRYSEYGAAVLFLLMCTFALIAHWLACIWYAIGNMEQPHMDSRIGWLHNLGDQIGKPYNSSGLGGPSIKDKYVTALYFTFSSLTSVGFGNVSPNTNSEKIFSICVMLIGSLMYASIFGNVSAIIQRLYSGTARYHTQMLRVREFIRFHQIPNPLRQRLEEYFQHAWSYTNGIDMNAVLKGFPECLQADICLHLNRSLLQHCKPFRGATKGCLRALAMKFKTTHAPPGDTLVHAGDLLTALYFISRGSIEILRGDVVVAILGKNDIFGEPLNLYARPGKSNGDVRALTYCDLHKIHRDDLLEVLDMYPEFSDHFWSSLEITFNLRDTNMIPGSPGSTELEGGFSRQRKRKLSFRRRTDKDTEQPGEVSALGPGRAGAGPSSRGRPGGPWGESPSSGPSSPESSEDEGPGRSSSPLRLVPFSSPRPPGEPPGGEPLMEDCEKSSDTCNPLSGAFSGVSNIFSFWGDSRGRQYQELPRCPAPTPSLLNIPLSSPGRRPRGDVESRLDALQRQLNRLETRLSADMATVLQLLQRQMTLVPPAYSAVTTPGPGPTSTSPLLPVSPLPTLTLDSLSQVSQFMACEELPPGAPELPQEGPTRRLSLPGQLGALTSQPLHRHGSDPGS

| Papp at 4 h, 100 µM [2] [×10⁻⁶ cm/s] | IC50 [5] [nM] | IC50 [6] [nM] | AUC [7] [µM·h] | AUC [8] [µM·h] | clearance [8] [mL/min/kg] | bioavailability [8] [%] | SMILES | IC50 [1] [nM] | inhibition at 10000 nM [3] [%] | inhibition at 30000 nM [3] [%] | inhibition at 30000 nM [4] [%] | clearance [7] [mL/min/kg] | bioavailability [7] [%] | inhibition at 100000 nM ([3]; pH 7.4, 100,000 nM) [%] |
| --- | --- | --- | --- | --- | --- | --- | --- | --- | --- | --- | --- | --- | --- | --- |
| 18.7 | 3.34 ± 0.32 | 3.85 ± 0.36 | – | – | – | – | CC(=O)N[C@@H]1C[C@H](N(C)C(C)C)CC[C@@H]1N1CC[C@H](Nc2ncnc3cnc(C(C)(C)C)nc23)C1=O [Example 1, N-((1R,2S,5R)-2-((3S)-3-((6-tert-butylpyrimido[5,4-d]pyrimidin-4-yl)amino)-2-oxo-1-pyrrolidinyl)-5-(isopropyl(methyl)amino)cyclohexyl)acetamide] | > 80000 | 8 | 17 | 13 | – | – | – |
| 35 | 1.91 ± 0.52 | 0.92 | – | 3.04 | 56 | 52 | CC(C)(C)N[C@@H]1CC[C@H](N2CC[C@H](NC(=O)c3ccnc(C(C)(C)C)n3)C2=O)[C@H](NS(C)(=O)=O)C1 [Example 11, 2-tert-butyl-N—((S)-1-((1S,2R,4R)-4-(tert-butylamino)-2-(methylsulfonamido)cyclohexyl)-2-oxopyrrolidin-3-yl)pyrimidine-4-carboxamide] | > 80000 | – | 15 | – | – | – | – |
| 23.9 | 4.49 ± 1.35 | – | 0.413 | 5.23 | 59 | 91 | CCC(=O)N[C@@H]1C[C@H](NC(C)(C)C)CC[C@@H]1N1CC[C@H](NC(=O)c2ccnc(C(C)(C)C)n2)C1=O [Example 12, 2-tert-butyl-N-((3S)-1-((1S,2R,4R)-4-(tert-butylamino)-2-(propionylamino)cyclohexyl)-2-oxo-3-pyrrolidinyl)-4-pyrimidinecarboxamide] | > 80000 | 6 | 7 | – | – | – | – |
| 54.1 ± 6.3 | 4.02 ± 1.31 | 0.49 | 0.263 | 10.5 | 26 | 88 | CC(C)(C)N[C@@H]1CC[C@H](N2CC[C@H](Nc3ncnc4cnc(C(C)(C)C)nc34)C2=O)[C@H](NS(C)(=O)=O)C1 [Example 13, N-((1R,2S,5R)-5-(tert-butylamino)-2-((3S)-3-((6-tert-butylpyrimido[5,4-d]pyrimidin-4-yl)amino)-2-oxo-1-pyrrolidinyl)cyclohexyl)methanesulfonamide] | > 80000 | – | 10 | – | – | – | – |
| 18.6 | 3.34 ± 0.71 | 0.92 ± 0.67 | 0.333 | 16.2 | 23 | 93 | CO[C@@H]1CC[C@H](N2CC[C@H](Nc3ncnc4ccc(C(F)(F)F)cc34)C2=O)[C@H](CNC(C)=O)C1 [Example 15, N-(((1S,2S,5R)-5-methoxy-2-((3S)-2-oxo-3-((6-(trifluoromethyl)-4-quinazolinyl)amino)-1-pyrrolidinyl)cyclohexyl)methyl)acetamide] | > 80000 | – | 29 | – | 28 | 19 | 47 |

| SMILES | Papp at 4 h, 100 µM [2] [×10⁻⁶ cm/s] | IC50 [5] [nM] | IC50 [6] [nM] | AUC [7] [µM·h] | AUC [8] [µM·h] | clearance [8] [mL/min/kg] | bioavailability [8] [%] | IC50 [1] [nM] | inhibition at 10000 nM [3] [%] | inhibition at 30000 nM [3] [%] | inhibition at 30000 nM [4] [%] | clearance [7] [mL/min/kg] | bioavailability [7] [%] | inhibition at 100000 nM ([3]; pH 7.4, 100,000 nM) [%] |
| --- | --- | --- | --- | --- | --- | --- | --- | --- | --- | --- | --- | --- | --- | --- |
| CN[C@@H]1CC[C@H](N2CC[C@H](Nc3ncnc4ccc(C(F)(F)F)cc34)C2=O)[C@H](NC(C)=O)C1 [Example 3, N-((1R,2S,5R)-5-(methylamino)-2-((3S)-2-oxo-3-((6-(trifluoromethyl)-4-quinazolinyl)amino)-1-pyrrolidinyl)cyclohexyl)acetamide] | – | 4.74 ± 0.58 | – | 2.05 | – | – | – | > 80000 | 6 | 24 | 3 | 15 | 91 | – |
| CC(=O)N[C@@H]1C[C@H](N(C)C)CC[C@@H]1N1CC[C@H](Nc2ncnc3ccc(C(F)(F)F)cc23)C1=O [Example 8, N-((1R,2S,5R)-5-(dimethylamino)-2-((3S)-2-oxo-3-((6-(trifluoromethyl)-4-quinazolinyl)amino)-1-pyrrolidinyl)cyclohexyl)acetamide] | – | 3.58 ± 0.78 | 4.09 ± 1.21 | 0.558 | 7.28 | – | – | > 80000 | 18 | 37 | 11 | – | – | – |
